Laboratory results from BindingDB's records for doi:10.7270/Q2DV1H7P (Burnham Center For Chemical Genomics, 2009).

target: Runt-related transcription factor 1 (Homo sapiens, UniProt Q01196); assay: inhibitors of RUNX1 Runt–CBFb-SMMHC binding, primary screen, biochemical, FRET, Cerulean-Runt, Venus-CBFb-SMMHC, uHTS (AID 1434); conditions: pH 7.4; 23 °C
Sequence (Q01196 whole entry): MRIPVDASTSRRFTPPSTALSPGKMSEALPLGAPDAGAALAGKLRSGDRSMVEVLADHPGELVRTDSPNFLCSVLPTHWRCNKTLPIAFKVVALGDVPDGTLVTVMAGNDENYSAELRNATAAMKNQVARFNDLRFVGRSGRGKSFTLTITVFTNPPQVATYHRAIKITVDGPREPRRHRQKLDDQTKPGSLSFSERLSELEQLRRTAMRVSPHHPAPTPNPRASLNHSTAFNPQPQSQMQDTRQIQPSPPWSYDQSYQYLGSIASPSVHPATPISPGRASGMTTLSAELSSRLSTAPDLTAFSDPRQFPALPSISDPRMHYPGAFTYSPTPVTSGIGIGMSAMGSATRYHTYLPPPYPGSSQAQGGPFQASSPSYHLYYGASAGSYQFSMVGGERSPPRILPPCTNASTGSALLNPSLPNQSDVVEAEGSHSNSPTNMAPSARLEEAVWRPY

**Q.** For `Cc1cc2c(c(=O)n1CCc1ccccc1)C(c1ccco1)C(C#N)C(=N)O2` (stereo not drawn) [SMR000149533], which IC50 is on record?
**A.** The IC50 was 100 µM.

**Q.** How did the IC50 turn out when `CN1c2ccsc2C(=O)C(C(=S)Nc2ccc(F)c(Cl)c2)S1(=O)=O` (stereo not drawn) was run?
**A.** Its IC50 is 100 µM.

**Q.** `Cc1ccc(C)c(-c2csc(N=NC(C)c3cc4c(ccc5ccccc54)oc3=O)n2)c1` (stereo not drawn) [MLS000559785] was tested. Which IC50 did it give?
**A.** Its IC50 is 10.1 µM.
